Measured values taken from patent US12187716B2, “TYK2 kinase inhibitors” (SAREUM LIMITED, priority 2018, dated 2025).
Where two headings read alike, the source gives them in different places.

Legend:
pSTAT3 in HT29 cells = experiment: pSTAT3 inhibition in response to IL-22 stimulation in serum starved HT29 cells; type: cell-based; conditions: for inhibition at 10 µM: HT-29, HT29 cells, 10 ng/ml human IL-22, 10 μM compound; for IC50: Homo sapiens, HT-29, HT29 cells, 10 ng/ml human IL-22
Experimental: HT29 cells were serum starved overnight before the four test compounds were diluted to generate a 9-point semi-log dose dilution with a top concentration of 10 μM, plus vehicle control. HT29 cells were incubated with the test compounds for 20 min at 37° C. HT29 cells were incubated for a further 15 min with 10 ng/ml human IL-22 before cells were fixed with 4% PFA for 10 min, and 90% methanol for 30 min before being labelled with a phospho-STAT3Y705 antibody (CST #9145). Cells were rinsed three times using 0.5% BSA/PBS solution before being incubated with Alexa-488 anti-rabbit secondary antibodies.
Mean fluorescence intensity of phospho-STAT3 in single cells was analysed by flow cytometry using an Intellicyt iQue instrument and FlowJo software. The IC50 was determined using a four-parameter analysis following removal of background signal and normalisation to the DMSO control.

JAK2 = JAK2 (Homo sapiens, UniProt O60674); experiment: JAK2 kinase inhibition assay (33P-ATP filter binding, Reaction Biology); conditions: for selectivity for TYK2 compared to JAK2: biochemical assays; for Selectivity v TYK2: JAK2: ratio of JAK2 IC50 to TYK2 IC50
Sequence of JAK2 (O60674 809-1132): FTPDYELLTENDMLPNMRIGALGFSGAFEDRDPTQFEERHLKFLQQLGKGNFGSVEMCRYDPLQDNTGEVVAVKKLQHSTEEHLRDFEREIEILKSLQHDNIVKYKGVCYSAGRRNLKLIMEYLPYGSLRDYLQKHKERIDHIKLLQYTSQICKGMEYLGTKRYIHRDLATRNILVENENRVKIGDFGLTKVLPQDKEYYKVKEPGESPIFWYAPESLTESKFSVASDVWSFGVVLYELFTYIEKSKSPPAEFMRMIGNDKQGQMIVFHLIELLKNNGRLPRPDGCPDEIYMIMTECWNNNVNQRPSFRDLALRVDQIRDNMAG

[1] = Hepatocyte stability assay, rat; type: in vitro ADME; conditions: male, Sprague-Dawley, pooled hepatocytes, 37° C.
Experimental: (§1) Test and control compounds were incubated with hepatocytes at 37° C. Aliquots were removed at 6 timepoints over a one hour period. Samples were centrifuged and the supernatant fractions analysed for parent compound by mass spectrometry (LC-MS/MS).
(§2) The amount of compound remaining (expressed as %) was determined from the MS response in each sample relative to that in the T=0 samples, and used to determine the half-life and intrinsic clearance of the compound.

CYP2C9 = target: T1, CYP2C9 (Homo sapiens, UniProt P11712); experiment: Cytochrome P450 inhibition assay, CYP2C9; type: in vitro ADME; conditions: pooled human liver microsomes, probe Diclofenac
T1 construct: from tissue; host or cells: pooled human liver microsomes
T1 sequence (P11712 whole entry): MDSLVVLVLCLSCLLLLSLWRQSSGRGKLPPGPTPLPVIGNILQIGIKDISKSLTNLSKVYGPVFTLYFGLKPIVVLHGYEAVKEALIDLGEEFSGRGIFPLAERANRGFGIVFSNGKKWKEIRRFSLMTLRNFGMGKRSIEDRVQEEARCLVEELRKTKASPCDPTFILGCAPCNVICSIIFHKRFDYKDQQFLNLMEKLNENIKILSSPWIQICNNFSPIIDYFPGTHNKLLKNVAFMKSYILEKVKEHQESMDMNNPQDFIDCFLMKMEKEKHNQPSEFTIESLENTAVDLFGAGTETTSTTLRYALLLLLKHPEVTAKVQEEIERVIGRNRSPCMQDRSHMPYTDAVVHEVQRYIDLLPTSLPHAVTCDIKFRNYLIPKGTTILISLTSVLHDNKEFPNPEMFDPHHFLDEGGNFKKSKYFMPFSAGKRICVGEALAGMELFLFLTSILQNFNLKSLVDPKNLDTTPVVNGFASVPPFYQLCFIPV
Experimental: (§3) The susceptibility of Compounds (2) and (3) to potential drug-drug interactions was tested by assaying their abilities to inhibit various cytochrome P450 isoforms. Prior art Compound B (see Example 3 above) was also tested as a comparative example. Test compounds, prepared and serially diluted in DMSO, were incubated at six concentrations (1% DMSO final) with pooled human liver microsomes in the presence of probe substrate for each isoform, and their effects on the metabolism of probe substrates determined. Incubations (in 96-well plates) were carried out at 37° C. in 0.1 M Tris buffer, pH 7.4, with reactions initiated by the addition of cofactor, NADPH (1 mM final concentration). At the specified times, reactions were terminated with acetonitrile containing an analytical internal standard, samples were centrifuged and the supernatant fractions were analysed for probe substrate metabolites by mass spectrometry (LC-MS/MS). The instrument responses were normalised to internal standard and compared to the appropriate solvent controls to determine the amount of metabolite formed from the probe substrates relative to these “uninhibited” controls. […] [table]

JAK3 = JAK3 (Homo sapiens, UniProt P52333); experiment: JAK3 kinase inhibition assay (33P-ATP filter binding, Reaction Biology)
Sequence of JAK3 (P52333 781-1124): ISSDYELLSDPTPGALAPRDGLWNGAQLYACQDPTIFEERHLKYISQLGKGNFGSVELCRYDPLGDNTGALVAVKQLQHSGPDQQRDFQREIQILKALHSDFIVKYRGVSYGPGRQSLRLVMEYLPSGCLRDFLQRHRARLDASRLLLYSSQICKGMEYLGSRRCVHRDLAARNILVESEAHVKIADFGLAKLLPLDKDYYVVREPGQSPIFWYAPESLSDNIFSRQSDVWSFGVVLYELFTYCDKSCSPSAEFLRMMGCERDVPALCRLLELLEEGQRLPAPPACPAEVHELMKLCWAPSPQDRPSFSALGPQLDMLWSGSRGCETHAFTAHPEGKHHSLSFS

CYP3A4 = target: T2, CYP3A4 (Homo sapiens, UniProt P08684); experiment: Cytochrome P450 inhibition assay, CYP3A4; type: in vitro ADME; conditions: pooled human liver microsomes
T2 construct: from tissue; host or cells: pooled human liver microsomes
T2 sequence (P08684 whole entry): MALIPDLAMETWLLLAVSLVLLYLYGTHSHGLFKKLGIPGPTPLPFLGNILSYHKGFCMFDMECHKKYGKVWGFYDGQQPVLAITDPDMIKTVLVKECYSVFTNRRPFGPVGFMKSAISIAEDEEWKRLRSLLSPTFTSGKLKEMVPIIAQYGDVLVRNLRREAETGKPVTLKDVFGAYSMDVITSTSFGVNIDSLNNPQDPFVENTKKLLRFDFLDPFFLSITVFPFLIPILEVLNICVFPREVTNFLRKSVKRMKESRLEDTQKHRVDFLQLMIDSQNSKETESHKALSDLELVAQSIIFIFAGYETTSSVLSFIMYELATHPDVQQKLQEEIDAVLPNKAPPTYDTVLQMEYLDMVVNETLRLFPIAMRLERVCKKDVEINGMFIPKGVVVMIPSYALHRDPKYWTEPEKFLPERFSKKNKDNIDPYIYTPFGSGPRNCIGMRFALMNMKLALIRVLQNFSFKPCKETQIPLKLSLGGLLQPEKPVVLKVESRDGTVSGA
Experimental: as §3

CYP2B6 = target: T3, CYP2B6 (Homo sapiens, UniProt P20813); experiment: Cytochrome P450 inhibition assay, CYP2B6; type: in vitro ADME; conditions: pooled human liver microsomes, probe Bupropion
T3 construct: from tissue; host or cells: pooled human liver microsomes
T3 sequence (P20813 1-491): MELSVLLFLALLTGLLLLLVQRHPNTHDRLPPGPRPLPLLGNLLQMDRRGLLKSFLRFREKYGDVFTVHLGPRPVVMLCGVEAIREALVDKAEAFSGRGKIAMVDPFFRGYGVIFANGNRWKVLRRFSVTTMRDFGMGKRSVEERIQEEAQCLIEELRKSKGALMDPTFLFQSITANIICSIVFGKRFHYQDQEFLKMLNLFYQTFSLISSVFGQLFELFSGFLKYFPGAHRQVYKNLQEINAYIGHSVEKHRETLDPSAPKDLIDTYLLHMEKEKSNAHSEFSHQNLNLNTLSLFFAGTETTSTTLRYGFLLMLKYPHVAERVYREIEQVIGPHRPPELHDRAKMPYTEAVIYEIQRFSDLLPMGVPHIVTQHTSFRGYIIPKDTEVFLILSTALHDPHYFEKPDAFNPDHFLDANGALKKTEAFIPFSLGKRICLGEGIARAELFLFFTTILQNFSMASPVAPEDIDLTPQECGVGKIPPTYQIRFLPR
Experimental: as §3

CYP2C8 = target: T4, CYP2C8 (Homo sapiens, UniProt P10632); experiment: Cytochrome P450 inhibition assay, CYP2C8; type: in vitro ADME; conditions: pooled human liver microsomes, probe Amodiaquine
T4 construct: from tissue; host or cells: pooled human liver microsomes
T4 sequence (P10632 1-490): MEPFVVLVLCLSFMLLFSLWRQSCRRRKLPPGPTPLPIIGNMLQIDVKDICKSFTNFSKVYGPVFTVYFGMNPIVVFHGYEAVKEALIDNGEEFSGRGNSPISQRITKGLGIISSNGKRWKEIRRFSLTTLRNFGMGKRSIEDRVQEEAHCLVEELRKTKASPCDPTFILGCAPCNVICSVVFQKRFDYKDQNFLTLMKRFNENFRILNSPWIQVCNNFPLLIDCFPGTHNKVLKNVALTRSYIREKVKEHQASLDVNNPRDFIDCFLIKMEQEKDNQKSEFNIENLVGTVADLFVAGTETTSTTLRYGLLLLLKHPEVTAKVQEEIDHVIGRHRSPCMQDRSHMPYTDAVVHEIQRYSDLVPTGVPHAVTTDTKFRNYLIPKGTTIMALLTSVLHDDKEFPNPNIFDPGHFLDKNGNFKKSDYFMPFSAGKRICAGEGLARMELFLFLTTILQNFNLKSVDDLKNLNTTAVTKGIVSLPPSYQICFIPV
Experimental: as §3

[2] = Hepatocyte stability assay, dog; type: in vitro ADME; conditions: male, Beagle, pooled hepatocytes, 37° C.
Experimental: as §1, §2

[3] = Hepatocyte stability assay, human; type: in vitro ADME, human (mixed gender); conditions: both sexes, pooled hepatocytes, 37° C.
Experimental: as §1, §2

[4] = probe Midazolam, read-out: CYP3A4 (MID) IC50
[5] = probe Testosterone, read-out: CYP3A4 (Test) IC50

Row | IC50 (JAK2) | selectivity for TYK2 compared to JAK2 (JAK2) | Selectivity v TYK2: JAK2 (JAK2) | hepatocyte CLint [1] | IC50 (CYP2C9) | IC50 (JAK3) | IC50 (CYP3A4; [4]) | IC50 (CYP3A4; [5]) | IC50 (CYP2B6) | IC50 (CYP2C8) | IC50 (pSTAT3 in HT29 cells) | hepatocyte CLint [2] | hepatocyte CLint [3] | half-life ([2]; read-out: Dog T1/2) | half-life ([1]; read-out: Rat T1/2) | half-life ([3]; read-out: Human T1/2) | selectivity for TYK2 compared to JAK3 (JAK3; biochemical assays) | Selectivity v TYK2: JAK3 (JAK3; ratio of JAK3 IC50 to TYK2 IC50) | Compound | inhibition at 10 µM (pSTAT3 in HT29 cells)
1 | 0.05 µM | approximately 25 fold | 26.3 | 50 µL/min/1e6 cells | 26 µM | 0.212 µM | > 30 µM | > 30 µM | > 30 µM | > 30 µM | – | – | – | – | – | – | – | – | NC(=O)c1nc(-c2c(Cl)cccc2Cl)oc1Nc1ccc(C(=O)N2CCS(=O)(=O)CC2)cc1 [Compound (2)] | 95.9%
2 | – | – | – | 104 µL/min/1e6 cells | 4.4 µM | 0.271 µM | > 30 µM | > 30 µM | > 30 µM | > 8.2 µM | < 0.1 µM | 29.8 µL/min/1e6 cells | 9 µL/min/1e6 cells | – | – | – | – | – | NC(=O)c1nc(-c2c(Cl)cccc2Cl)oc1Nc1ccc(C(=O)N2CCOCC2)cc1 [Comparative Compound B, 2-(2,6-dichloro-phenyl)-5-[4-(morpholine-4-carbonyl)-phenylamino]-oxazole-4-carboxylic acid amide, reference compound] | 97.9%
3 | 0.153 µM | approximately 32 fold | 32.5 | 53.8 µL/min/1e6 cells | > 30 µM | 0.772 µM | > 30 µM | > 30 µM | > 30 µM | > 30 µM | 0.231 µM | 8.8 µL/min/1e6 cells | 4.2 µL/min/1e6 cells | 3.08 h | 0.475 h | 5.58 h | ~164 fold | 164.3 | NC(=O)c1nc(-c2c(Cl)cccc2Cl)oc1Nc1ccc(C(=O)N2CCS(=O)(=O)CC2)c(F)c1 [Compound (3)] | 95.9%
